Measurements reported in PMC4762448 (Journal of biomolecular screening, 2011).
Read-outs that look alike come from different tables or passages of the source.

Legend:
[1] = target: T1, 5-HT3A (Homo sapiens, UniProt P46098); experiment: LGIC-CNiFER FRET calcium sensor assay in HEK cells, 5-HT3A; type: cell-based; conditions: control at 0.1 μM
T1 sequence (P46098 24-478): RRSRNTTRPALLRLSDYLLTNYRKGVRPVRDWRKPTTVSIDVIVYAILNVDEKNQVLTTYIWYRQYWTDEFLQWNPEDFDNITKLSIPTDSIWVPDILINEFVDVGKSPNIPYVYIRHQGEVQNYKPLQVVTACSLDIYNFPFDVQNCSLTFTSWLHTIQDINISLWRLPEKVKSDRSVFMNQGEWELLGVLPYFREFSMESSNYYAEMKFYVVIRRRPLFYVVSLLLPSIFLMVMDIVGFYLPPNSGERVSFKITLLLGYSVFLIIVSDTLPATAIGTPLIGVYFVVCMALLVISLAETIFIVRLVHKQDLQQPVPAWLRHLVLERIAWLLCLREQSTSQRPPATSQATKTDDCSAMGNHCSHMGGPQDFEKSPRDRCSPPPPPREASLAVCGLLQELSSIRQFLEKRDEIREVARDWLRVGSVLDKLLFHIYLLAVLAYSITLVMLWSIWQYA

[2] = 125I-Bgt displacement assay; cited from earlier work
[3] = target: Ls-AChBP (Lymnaea stagnalis, UniProt P58154); conditions: cited from earlier work
[4] = target: AcY55W-AChBP (Aplysia californica, UniProt Q8WSF8, Y72W); experiment: [3H] epibatidine competition scintillation proximity assay, AcY55W-AChBP; type: binding
[5] = target: T2, α7nAChR (Homo sapiens, UniProt P36544); experiment: LGIC-CNiFER FRET calcium sensor assay in HEK cells, α7nAChR; type: cell-based
[6] = target: T3, Ac-AChBP (Aplysia californica, UniProt Q8WSF8); experiment: [3H] epibatidine competition scintillation proximity assay, Ac-AChBP; type: binding
T3 sequence (Q8WSF8 18-236 limits assumed): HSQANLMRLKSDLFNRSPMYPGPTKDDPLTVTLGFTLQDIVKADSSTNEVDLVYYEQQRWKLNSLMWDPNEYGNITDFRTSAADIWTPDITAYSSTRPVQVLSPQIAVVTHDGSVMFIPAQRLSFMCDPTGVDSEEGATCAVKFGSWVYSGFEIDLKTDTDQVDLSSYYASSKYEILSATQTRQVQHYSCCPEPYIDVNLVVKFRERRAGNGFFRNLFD

[7] = tested on: AChBPs (Ls, Ac, and AcY55W); experiment: [3H] epibatidine competition SPA, the three AChBPs together; type: binding; conditions: 10 μM of each compound
[8] = target: α1nAChR (Homo sapiens, UniProt P02708+Q07001); experiment: LGIC-CNiFER membrane potential dye assay in HEK cells, α1nAChR; type: cell-based; conditions: 0.1 µM
[9] = target: T2, α7nAChR; type: cell-based

T2 sequence (P36544 23-502): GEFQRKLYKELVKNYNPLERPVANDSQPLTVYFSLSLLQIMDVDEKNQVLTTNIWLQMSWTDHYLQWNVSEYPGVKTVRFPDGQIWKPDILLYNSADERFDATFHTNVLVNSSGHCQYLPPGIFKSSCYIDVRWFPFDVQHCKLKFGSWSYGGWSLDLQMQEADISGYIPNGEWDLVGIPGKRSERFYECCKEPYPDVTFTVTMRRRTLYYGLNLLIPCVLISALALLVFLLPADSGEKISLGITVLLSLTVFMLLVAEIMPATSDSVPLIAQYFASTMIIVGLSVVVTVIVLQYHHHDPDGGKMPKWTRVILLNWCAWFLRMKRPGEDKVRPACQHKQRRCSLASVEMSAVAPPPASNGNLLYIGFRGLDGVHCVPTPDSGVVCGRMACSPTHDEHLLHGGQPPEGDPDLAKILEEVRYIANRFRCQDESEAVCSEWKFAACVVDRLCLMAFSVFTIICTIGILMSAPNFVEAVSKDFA
Ls-AChBP, sequence (P58154 20-229 limits assumed): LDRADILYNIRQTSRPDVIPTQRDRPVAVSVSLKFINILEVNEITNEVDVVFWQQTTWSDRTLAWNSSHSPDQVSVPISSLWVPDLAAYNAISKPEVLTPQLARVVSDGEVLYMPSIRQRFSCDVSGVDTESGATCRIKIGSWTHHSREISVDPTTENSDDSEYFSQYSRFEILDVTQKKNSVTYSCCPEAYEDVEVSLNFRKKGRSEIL
α1nAChR, sequence (P02708 21-457): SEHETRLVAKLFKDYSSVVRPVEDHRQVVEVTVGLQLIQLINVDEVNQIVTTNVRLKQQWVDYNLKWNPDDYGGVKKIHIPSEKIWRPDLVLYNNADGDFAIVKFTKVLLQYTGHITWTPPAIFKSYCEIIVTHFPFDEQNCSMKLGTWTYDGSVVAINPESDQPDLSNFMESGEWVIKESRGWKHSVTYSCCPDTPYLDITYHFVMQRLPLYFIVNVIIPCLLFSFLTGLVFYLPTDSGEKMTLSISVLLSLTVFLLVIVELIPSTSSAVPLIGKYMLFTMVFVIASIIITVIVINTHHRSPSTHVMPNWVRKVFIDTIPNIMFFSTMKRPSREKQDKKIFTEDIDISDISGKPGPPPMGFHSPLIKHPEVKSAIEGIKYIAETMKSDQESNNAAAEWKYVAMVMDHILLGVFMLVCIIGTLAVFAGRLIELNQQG
α1nAChR, sequence (P11230 24-501 partner): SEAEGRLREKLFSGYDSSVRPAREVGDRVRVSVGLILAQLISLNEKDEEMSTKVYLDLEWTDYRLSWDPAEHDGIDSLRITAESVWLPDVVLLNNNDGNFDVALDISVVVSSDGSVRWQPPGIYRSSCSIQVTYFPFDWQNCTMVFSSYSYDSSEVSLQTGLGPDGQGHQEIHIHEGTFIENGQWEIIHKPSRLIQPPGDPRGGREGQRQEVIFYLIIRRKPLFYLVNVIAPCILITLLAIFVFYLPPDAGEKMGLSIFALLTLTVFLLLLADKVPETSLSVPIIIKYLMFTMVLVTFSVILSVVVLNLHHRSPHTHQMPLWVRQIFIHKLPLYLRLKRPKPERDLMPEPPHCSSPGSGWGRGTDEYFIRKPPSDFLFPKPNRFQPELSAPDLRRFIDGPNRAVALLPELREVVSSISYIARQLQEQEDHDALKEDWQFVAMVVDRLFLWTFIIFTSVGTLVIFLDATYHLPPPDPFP
α1nAChR, sequence (Q07001 22-517): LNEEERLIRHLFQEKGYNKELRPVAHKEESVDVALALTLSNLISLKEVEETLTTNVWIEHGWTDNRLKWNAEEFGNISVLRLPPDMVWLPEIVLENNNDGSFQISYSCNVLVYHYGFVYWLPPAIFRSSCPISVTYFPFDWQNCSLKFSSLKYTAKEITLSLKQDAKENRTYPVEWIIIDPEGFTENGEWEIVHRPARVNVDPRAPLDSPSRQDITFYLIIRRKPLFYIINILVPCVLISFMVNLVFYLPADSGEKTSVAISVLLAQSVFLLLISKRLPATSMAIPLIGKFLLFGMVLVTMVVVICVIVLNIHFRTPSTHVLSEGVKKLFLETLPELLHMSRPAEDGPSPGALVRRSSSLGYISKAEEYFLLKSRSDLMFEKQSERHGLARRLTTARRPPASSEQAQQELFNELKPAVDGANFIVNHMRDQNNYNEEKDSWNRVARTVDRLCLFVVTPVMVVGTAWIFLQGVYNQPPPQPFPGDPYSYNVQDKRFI
AcY55W-AChBP, sequence (Q8WSF8 18-236 Y72W limits assumed): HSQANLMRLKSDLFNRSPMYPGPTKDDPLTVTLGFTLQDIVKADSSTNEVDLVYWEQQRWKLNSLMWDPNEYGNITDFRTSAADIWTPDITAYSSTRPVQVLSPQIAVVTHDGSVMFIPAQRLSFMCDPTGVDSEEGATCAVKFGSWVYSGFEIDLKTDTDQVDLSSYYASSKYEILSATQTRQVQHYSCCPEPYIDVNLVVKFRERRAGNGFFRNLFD

CN1[C@@H]2CC[C@H]1C[C@@H](OC(=O)c1c[nH]c3ccccc13)C2 [Tropocitron]
percent inhibition, 5-HT3A [1]: 96 ± 0.6%

CC(=O)OCC[N+](C)(C)C [ACh, acetylcholine]
pKd [2]: 5.5
Kd [3]: 0.823 µM

C[N+]1(C)[C@@H]2CC[C@H]1C[C@@H](OC(=O)C(CO)c1ccccc1)C2 (stereo partly drawn) [Compound 10]
Kd [4]: 2010 ± 137 nM
selectivity of antagonism among LGIC-CNiFERs [5]: nonselective antagonists
Kd [6]: 882 ± 117 nM
interference with the binding of [3H] epibatidine to BPs (screening) [7]: significant interference

α-Bungarotoxin
percent inhibition, α1nAChR [8]: 94 ± 0.8%

CCN1C[C@]2(COC(=O)c3ccccc3N3C(=O)C[C@H](C)C3=O)CC[C@H](OC)[C@@]34[C@@H]5C[C@H]6[C@H](OC)[C@@H]5[C@](O)(C[C@@H]6OC)[C@@](O)([C@@H](OC)[C@H]23)[C@@H]14 [MLA, methyllycaconitine]
percent inhibition, α7nAChR ([5]; 1 µM): 79 ± 6.4%
inhibition of current response elicited by 100 μM ACh [9]: completely inhibited

C[N+](C)(C)CCOC(N)=O [carbamylcholine]
Kd ([3]; isothermal titration calorimetry using Ls-AChBP): 7.58 µM

CN1CCC[C@H]1c1cccnc1 [nicotine]
pKd [2]: 7.2
